Among the data in patent US20090306062A1, “2,5-Disubstituted Piperidines” (priority 2006, published 2009) are IC50 values, retold here.

The experiment has as its target T1, renin (Homo sapiens, UniProt P00797).
T1 construct: This test measures the formation of angiotensin I in human plasma; from tissue; host or cells: human plasma
T1 sequence (P00797 67-406): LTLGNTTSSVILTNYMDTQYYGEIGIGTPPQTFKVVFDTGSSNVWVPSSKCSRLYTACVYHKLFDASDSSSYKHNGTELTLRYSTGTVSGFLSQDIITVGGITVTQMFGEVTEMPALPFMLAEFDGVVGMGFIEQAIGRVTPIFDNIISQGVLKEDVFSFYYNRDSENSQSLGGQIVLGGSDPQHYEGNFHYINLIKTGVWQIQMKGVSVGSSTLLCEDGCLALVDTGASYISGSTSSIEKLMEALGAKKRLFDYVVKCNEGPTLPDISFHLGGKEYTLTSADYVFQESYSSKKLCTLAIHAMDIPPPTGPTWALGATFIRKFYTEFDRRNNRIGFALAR
As to the kind of experiment: in vitro test according to Nussberger et al.: formation of angiotensin I in human plasma, radioimmunoassay. In kind it is biochemical. Particulars: range stated for the listed examples together, read-out: IC50, inhibition of the formation of angiotensin I. The protocol:
One experimental method of detecting the action of renin inhibitors is by means of in vitro tests, in which the reduction of the formation of angiotensin I in different systems (human plasma, purified human renin together with synthetic or natural renin substrate) is measured. One in vitro test which is used is the one according to Nussberger et al. (1987) J. Cardiovascular Pharmacol., Vol. 9, p. 39-44 which follows. This test measures the formation of angiotensin I in human plasma. The amount of angiotensin I formed is determined in a subsequent radioimmunoassay. Which action inhibitors have on the formation of angiotensin I is tested in this system by the addition of different concentrations of these substances. The IC50 refers to that concentration of the particular inhibitor which reduces the formation of angiotensin I by 50%.

Regarding `COCCCN1CCOc2ccc(CO[C@@H]3CC[C@@H](CC(C)(C)C(=O)NCC4CC4)NC3)cc21` [Example 25, N-Cyclopropylmethyl-3-{(2S,5R)-5-[4-(3-methoxypropyl)-3,4-dihydro-2H-benzo[1,4]oxazin-6-ylmethoxy]piperidin-2-yl}-2,2-dimethylpropionamide], the IC50 lay in the range of 74 to 2800 nM.
Under `COCCCN1CCOc2ccc(CO[C@@H]3CC[C@@H](CC(C)(C)C(=O)NCC(C)(C)C(N)=O)NC3)cc21` [Example 26, N-(2-Carbamoyl-2-methylpropyl)-3-{(2S,5R)-5-[4-(3-methoxypropyl)-3,4-dihydro-2H-benzo[1,4]oxazin-6-ylmethoxy]piperidin-2-yl}-2,2-dimethylpropionamide] stands 74 to 2800 nM.
Turning to `COCCCN1C(=O)[C@](C)(c2ccccc2)Oc2ccc(CO[C@@H]3CC[C@@H](CC(C)(C)C(=O)NCC4CCOCC4)NC3)cc21` [Example 52, (S)-3-{(2S,5R)-5-[(S)-4-(3-Methoxypropyl)-2-methyl-3-oxo-2-phenyl-3,4-dihydro-2H-benzo[1,4]oxazin-6-ylmethoxy]piperidin-2-yl}-2,2-dimethyl-N-(tetrahydropyran-4-ylmethyl)propionamide], the IC50 lay in the range of 74 to 2800 nM.
Under `COCCCN1CCOc2ccc(CO[C@@H]3CC[C@@H](C[C@@H](NC(=O)CC4CCOCC4)C(C)C)NC3)cc21` [Example 89, N—((R(or S))-1-{(2S,5R)-5-[4-(3-Methoxypropyl)-3,4-dihydro-2H-benzo[1,4]oxazin-6-ylmethoxy]piperidin-2-ylmethyl}-2-methylpropyl)-2-(tetrahydropyran-4-yl)acetamide] stands 74 to 2800 nM.
In the case of `COCCCOc1cc(CO[C@@H]2CC[C@@H](CC(C)(C)C(=O)NCC3CCOCC3)NC2)ccc1F` [Example 42, 3-{(2S,5R)-5-[4-Fluoro-3-(3-methoxypropoxy)benzyloxy]piperidin-2-yl}-2,2-dimethyl-N-(tetrahydropyran-4-ylmethyl)propionamide], the IC50 was in the range of 74 to 2800 nM.

Broadly, the IC50 is the concentration at which inhibition is half-maximal.
